Test results: ChEMBL document CHEMBL1155854, “Conformationally constrained farnesoid X receptor (FXR) agonists: Naphthoic acid-based analogs of GW 4064” (Bioorg Med Chem Lett, 2008)
Activity calls are given as the source filed them. The calls are words filed in the database; no cut-off is given here.

How the values were obtained:
[1] = molecular target: T1, Peroxisome proliferator-activated receptor gamma (Homo sapiens, UniProt P37231); assay: Agonist activity at PPARgamma by SPA assay; assay type: functional
T1 sequence (P37231 whole entry): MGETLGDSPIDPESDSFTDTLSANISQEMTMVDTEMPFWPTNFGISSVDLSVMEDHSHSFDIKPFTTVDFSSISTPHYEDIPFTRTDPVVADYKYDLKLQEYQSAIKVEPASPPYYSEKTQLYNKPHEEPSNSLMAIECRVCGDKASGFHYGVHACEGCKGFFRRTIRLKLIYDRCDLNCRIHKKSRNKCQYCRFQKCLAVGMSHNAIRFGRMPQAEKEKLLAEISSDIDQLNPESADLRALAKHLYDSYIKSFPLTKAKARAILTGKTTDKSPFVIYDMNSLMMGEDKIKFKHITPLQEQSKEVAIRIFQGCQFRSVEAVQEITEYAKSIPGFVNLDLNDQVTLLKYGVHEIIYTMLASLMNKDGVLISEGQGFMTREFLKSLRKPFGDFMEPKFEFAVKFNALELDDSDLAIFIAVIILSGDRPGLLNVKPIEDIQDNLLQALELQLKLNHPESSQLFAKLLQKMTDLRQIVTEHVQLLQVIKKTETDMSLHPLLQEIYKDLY

[2] = Half life in iv dosed mouse; assay type: ADME, organism-based; details: in vivo
[3] = Oral bioavailability in cynomolgus monkey at 5 mg/kg; assay type: ADME, organism-based, Macaca fascicularis; details: in vivo
[4] = molecular target: T2, Bile acid receptor (Homo sapiens) (UniProt Q96RI1); assay: Agonist activity at FXR expressed in african green monkey CV1 cells by luciferase reporter transient transfection assay relative to GW-4064; assay type: functional, cell-based; details: CV-1
T2 sequence (whole entry): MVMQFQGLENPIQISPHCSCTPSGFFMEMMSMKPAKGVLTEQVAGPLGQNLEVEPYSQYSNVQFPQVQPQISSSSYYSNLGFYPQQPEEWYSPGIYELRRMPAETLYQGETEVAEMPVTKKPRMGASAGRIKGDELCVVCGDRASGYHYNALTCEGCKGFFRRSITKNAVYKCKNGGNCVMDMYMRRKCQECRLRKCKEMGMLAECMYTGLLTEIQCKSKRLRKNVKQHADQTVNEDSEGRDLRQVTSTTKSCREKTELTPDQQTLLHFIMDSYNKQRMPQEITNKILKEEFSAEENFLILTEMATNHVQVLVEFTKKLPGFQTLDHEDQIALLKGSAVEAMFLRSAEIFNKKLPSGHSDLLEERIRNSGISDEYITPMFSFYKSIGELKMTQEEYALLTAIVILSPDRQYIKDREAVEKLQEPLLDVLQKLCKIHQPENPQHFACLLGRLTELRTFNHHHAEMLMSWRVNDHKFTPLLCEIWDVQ

Rattus norvegicus = assay: Reduction of serum direct bilirubin level in alpha-naphthyl-isothiocyanate-induced rat acute cholestasis model at 100 to 300 mg/kg, po bid for 4 days dosed before 2 days induction by alpha-naphthyl-isothiocyanate; assay type: functional, organism-based

XC50 [1]: > 10 µM | half-life [2]: 1.6 h | bioavailability [3]: 34% | %max [4]: 104%
SMILES: CC(C)c1onc(-c2c(Cl)cccc2Cl)c1COc1ccc(-c2ccc3c(C(=O)O)cccc3c2)cc1
Activity (Rattus norvegicus): Active
